Experimental findings from patent US12295396B2, “Antagonists of T2R54 and compositions and uses thereof” (Firmenich Incorporated, priority 2018, dated 2025) are described below.

Like-named read-outs stand apart in the source and are kept apart here. A value given as a limit tells only on which side of the number the result lay.

Test [1] has as its target T1, hT2R54 (Homo sapiens, UniProt P59534).
T1 construct: expressed in transfected cells; it overexpresses a promiscuous G protein
T1 sequence (P59534 1-338): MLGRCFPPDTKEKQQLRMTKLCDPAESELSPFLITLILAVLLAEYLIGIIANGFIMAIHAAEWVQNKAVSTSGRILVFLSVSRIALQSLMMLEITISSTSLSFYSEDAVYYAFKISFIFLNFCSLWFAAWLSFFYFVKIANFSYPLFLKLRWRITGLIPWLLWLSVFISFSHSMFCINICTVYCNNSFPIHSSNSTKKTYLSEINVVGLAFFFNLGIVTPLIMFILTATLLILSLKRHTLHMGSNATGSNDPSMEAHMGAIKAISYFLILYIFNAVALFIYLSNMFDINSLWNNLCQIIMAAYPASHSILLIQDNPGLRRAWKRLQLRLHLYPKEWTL
In words: Cell-based assay for measuring hT2R54 inhibition (FLIPR calcium, Fluo4AM, acetaminophen as bitter agonist). As to conditions: read-out: hT2R54 IC50. The gist of the method: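 Cells stably co-expressing hT2R54 and a promiscuous G protein were loaded with Fluo4AM and given acetaminophen dose series, alone or with fixed concentrations of test compound. On FLIPR, baseline was recorded for 10 s and fluorescence for 3 min after addition. IC50 is the concentration halving the acetaminophen-alone response.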

The test system of test [2] is bitterness of epigallocatechin gallate (EGCg). In words: Sensory experiments: taste tests comparing EGCg alone with EGCg and a bitter blocker. Format: in vivo, human. The procedure: To determine the effectiveness of an individual antagonist in blocking the bitterness, taste tests were performed comparing epigallocatechin gallate (EGCg) alone, which is known to activate T2R54 with EGCg and a bitter blocker described herein, namely compound 22 (Table 2).

Usually IC50 stands for the concentration that gives 50% inhibition. Consider `CC(=O)c1cc2c(cc1NC(=O)CN1CCN(C(=O)C3CCCO3)CC1)OCO2` (stereo not shown) [compound 22], for which the IC50 in test [1] (Table 2, cells stably expressing hT2R54 and a promiscuous G protein) worked out at 21 nM. Also, in test [2] (600 uM EGCG + 15 uM compound versus 600 uM EGCG alone, 56 in total, p-value 0.044), the “Total (times sample selected as more bitter)” value was 20. For the same compound, the “reduction of EGCg bitterness” value in test [2] (taste tests, EGCg alone versus EGCg with bitter blocker) is listed as “has the ability to reduce EGCg bitterness”. Consider `CC(=O)c1cc2c(cc1NC(=O)CC1CCN(C(=O)c3n[nH]cc3C)CC1)OCO2` [compound 464], for which the IC50 in test [1] (Table 8) was determined as 200 nM. `CC(=O)c1cc2c(cc1NC(=O)CC1CCN(C(=O)c3nc(C)c[nH]3)CC1)OCO2` [compound 465]: in test [1] (Table 8), the concentration for half-maximal inhibition (IC50) was found to be 46 nM. As to `CC(=O)c1cc2c(cc1NC(=O)CC1CCN(C(=O)c3cc(C)on3)CC1)OCO2` [compound 466], the half-maximal inhibitory concentration (IC50) in test [1] (Table 8) was 700 nM.

`CC(=O)c1cc2c(cc1NC(=O)CC1CCN(C(=O)c3ccc(C)o3)CC1)OCO2` [compound 467]: in test [1] (Table 8), the IC50 was 58 nM.

Turning to `COCc1ccc(C(=O)N2CCC(CC(=O)Nc3cc4c(cc3C(C)=O)OCO4)CC2)o1` [compound 468], the IC50 in test [1] (Table 8) is 70 nM.

For `COCC(=O)N1CCC(CC(=O)Nc2cc3c(cc2C(C)=O)OCO3)CC1` [compound 469], the IC50 in test [1] (Table 8) was 500 nM. The same measure, in the same setting: with `COCCOCC(=O)N1CCC(CC(=O)Nc2cc3c(cc2C(C)=O)OCO3)CC1` [compound 470] the figure was 700 nM; with `CC(=O)c1cc2c(cc1NC(=O)CC1CCN(C(=O)[C@H]3CCCO3)CC1)OCO2` [compound 471], 300 nM; with `CC(=O)c1cc2c(cc1NC(=O)CC1CCN(C(=O)[C@@H]3CCCO3)CC1)OCO2` [compound 472], 300 nM. For `CC(=O)c1cc2c(cc1NC(=O)CC1CCN(C(=O)C3CCN(C)C3)CC1)OCO2` (stereo not shown) [compound 473], the IC50 in test [1] (Table 8) is above 50000 nM. Regarding `CC(=O)c1cc2c(cc1NC(=O)CC1CCN(C(=O)[C@H]3CCC(=O)O3)CC1)OCO2` [compound 474], the IC50 in test [1] (Table 8) came to 130 nM. In the case of `CC(=O)c1cc2c(cc1NC(=O)CC1CCN(C(=O)CC3CCCO3)CC1)OCCO2` (stereo not shown) [compound 475], the IC50 in test [1] (Table 8) was 300 nM.

Consider `CC(=O)c1cc2c(cc1NC(=O)CC1CCN(C(=O)CC3CCCO3)CC1)OCO2` (stereo not shown) [compound 476], for which the IC50 in test [1] (Table 8) is 300 nM. The same measure, in the same setting: with `CC(=O)c1cc2c(cc1NC(=O)CC1CCN(C(=O)CC3CCOC3)CC1)OCO2` (stereo not shown) [compound 477] the figure was 400 nM; with `CC(=O)c1cc2c(cc1NC(=O)CC1CCN(C(=O)CN3CCCC3)CC1)OCO2` [compound 479], above 10000 nM; with `COC(=O)c1cc2c(cc1NC(=O)CC1CCCN(C(C)=O)C1)OCO2` (stereo not shown) [compound 480], 1400 nM. For the compound `COC(=O)c1cc2c(cc1NC(=O)CC1CCCN(C(=O)C3CCCO3)C1)OCO2` (stereo not shown) [compound 481], the IC50 in test [1] (Table 8) came to 2200 nM. As for `COC(=O)c1cc2c(cc1NC(=O)CC1CCN(C(=O)C3CCCO3)CC1)OCO2` (stereo not shown) [compound 482], the IC50 in test [1] (Table 8) was found to be 1400 nM.

Consider `COCc1ccc(C(=O)N2CCC(CC(=O)Nc3cc4c(cc3C(=O)OC)OCO4)CC2)cc1` [compound 483], for which the IC50 in test [1] (Table 8) was determined as 640 nM. On to `COC(=O)c1cc2c(cc1NC(=O)CC1CCN(C(=O)c3ccncc3)CC1)OCO2` [compound 484], for which the IC50 in test [1] (Table 8) worked out at 460 nM. Consider `CC(=O)c1cc2c(cc1NC(=O)CC1CCN(C(=O)c3cccnc3)CC1)OCCO2` [compound 485], for which, in test [1] (Table 8), the half-inhibitory concentration (IC50) is 240 nM.

For `COCc1cccc(C(=O)N2CCC(CC(=O)Nc3cc4c(cc3C(C)=O)OCCO4)CC2)c1` [compound 486], the IC50 in test [1] (Table 8) was found to be 188 nM.

Take `CC(=O)c1cc2c(cc1NC(=O)CC1CCN(C(=O)c3ccc(CO)o3)CC1)OCCO2` [compound 487]: the IC50 in test [1] (Table 8) came to 250 nM.

Consider `COCc1ccc(C(=O)N2CCC(CC(=O)Nc3cc4c(cc3C(C)=O)OCCO4)CC2)s1` [compound 488], for which the IC50 in test [1] (Table 8) was found to be 15 nM. `COCc1ccc(C(=O)N2CCC(CC(=O)Nc3cc4c(cc3C(C)=O)OCCO4)CC2)o1` [compound 489]: the IC50 in test [1] (Table 8) turned out to be 150 nM.

Turning to `CC(=O)c1cc2c(cc1NC(=O)CC1CCN(C(=O)c3cc(CO)on3)CC1)OCCO2` [compound 490], in test [1] (Table 8), the IC50 turned out to be 160 nM. Still for that read-out and setting: with `COCc1cc(C(=O)N2CCC(CC(=O)Nc3cc4c(cc3C(C)=O)OCCO4)CC2)no1` [compound 491] the figure was 160 nM; with `CC(=O)c1cc2c(cc1NC(=O)CC1CCN(C(=O)C3CCCO3)CC1)OCCO2` (stereo not shown) [compound 493], 450 nM.

On to `CC(=O)c1cc2c(cc1NC(=O)CC1CCN(C(=O)[C@@H]3CCCO3)CC1)OCCO2` [compound 494], for which, in test [1] (Table 8), the IC50 is 300 nM. Take `CC(=O)c1cc2c(cc1NC(=O)CC1CCN(C(=O)[C@H]3CCCO3)CC1)OCCO2` [compound 495]: the IC50 in test [1] (Table 8) is 200 nM.

Take `COc1cc2c(cc1NC(=O)CC1CCN(C(C)=O)CC1)OCO2` [compound 496]: the IC50 in test [1] (Table 8) is above 10000 nM.

As to `COc1cc2c(cc1NC(=O)CC1CCN(C(=O)C3CCCO3)CC1)OCO2` (stereo not shown) [compound 497], the half-inhibitory concentration (IC50) in test [1] (Table 8) is above 10000 nM. In the case of `COc1cc2c(cc1NC(=O)CC1CCN(C(=O)Cc3ccco3)CC1)OCO2` [compound 498], the IC50 in test [1] (Table 8) was above 10000 nM.

For `COc1cc2c(cc1NC(=O)CC1CCN(C(=O)c3nc(C)c[nH]3)CC1)OCO2` [compound 499], the IC50 in test [1] (Table 8) was above 10000 nM. Take `COc1cc2c(cc1NC(=O)CC1CCN(C(=O)c3ccc(C)o3)CC1)OCO2` [compound 500]: in test [1] (Table 8), the half-inhibitory concentration (IC50) was determined as 4000 nM. The same measure, in the same setting: with `COc1cc2c(cc1NC(=O)CC1CCN(C(=O)c3ccncc3)CC1)OCO2` [compound 501] the figure was above 50000 nM; with `CC(=O)c1cc2c(cc1NC(=O)CC1CCCN(C(=O)c3ccncc3)C1)OCO2` (stereo not shown) [compound 502], 170 nM; with `COCc1ccc(C(=O)N2CCCC(CC(=O)Nc3cc4c(cc3C(C)=O)OCO4)C2)cc1` (stereo not shown) [compound 503], 99 nM. `CC(=O)c1cc2c(cc1NC(=O)CC1CCCN(C(=O)c3nc(C)c[nH]3)C1)OCO2` (stereo not shown) [compound 504]: the IC50 in test [1] (Table 8) is 159 nM. Still for that read-out and setting: with `CC(=O)c1cc2c(cc1NC(=O)CC1CCCN(C(=O)c3ncc[nH]3)C1)OCO2` (stereo not shown) [compound 505] the figure was 130 nM; with `CC(=O)c1cc2c(cc1NC(=O)CC1CCCN(C(=O)c3cccnc3)C1)OCO2` (stereo not shown) [compound 506], 113 nM; with `CC(=O)c1cc2c(cc1NC(=O)CC1CCCN(C(=O)c3ccccn3)C1)OCO2` (stereo not shown) [compound 507], 275 nM. In the case of `COC(=O)c1cc2c(cc1NC(=O)CC1CCCN(C(C)=O)C1)OCCO2` (stereo not shown) [compound 508], the IC50 in test [1] (Table 8) is 1200 nM.

As for `CC(=O)c1cc2c(cc1NC(=O)CC1CN(C(C)=O)CCO1)OCO2` (stereo not shown) [compound 509], the IC50 in test [1] (Table 8) turned out to be 180 nM. Consider `CC(=O)c1cc2c(cc1NC(=O)CC1CN(C(=O)C3CCCO3)CCO1)OCO2` (stereo not shown) [compound 510], for which the IC50 in test [1] (Table 8) came out at 150 nM.

On to `COc1cc2c(cc1NC(=O)CC1CCCN(C(=O)CC(C)C)C1)OCO2` (stereo not shown) [compound 511], for which, in test [1] (Table 8), the 50% inhibitory concentration (IC50) was above 10000 nM. `COc1cc2c(cc1NC(=O)CC1CCCN(C(=O)c3ccco3)C1)OCO2` (stereo not shown) [compound 512]: the IC50 in test [1] (Table 8) was 7700 nM. In the case of `COc1cc2c(cc1NC(=O)CC1CCCN(C(=O)c3ccccc3)C1)OCO2` (stereo not shown) [compound 513], the IC50 in test [1] (Table 8) stood at 2700 nM.

In the case of `CCS(=O)(=O)N1CCCC(CC(=O)Nc2cc3c(cc2OC)OCO3)C1` (stereo not shown) [compound 515], the IC50 in test [1] (Table 8) amounted to 500 nM. For `CC(=O)c1cc2c(cc1NC(=O)CC(C)C)OCO2` [compound 516], the IC50 in test [1] (Table 9) was determined as 3000 nM. `CC(=O)c1cc2c(cc1NC(=O)CC1CCCC1)OCO2` [compound 517]: the IC50 in test [1] (Table 9) was 414 nM.

Regarding `CC(=O)c1cc2c(cc1NC(=O)Cc1c(C)noc1C)OCO2` [compound 518], in test [1] (Table 9), the IC50 is 3800 nM.

As to `CC(=O)c1cc2c(cc1NC(=O)CC1CCCN(C(=O)OC(C)(C)C)C1)OCO2` (stereo not shown) [compound 519], the IC50 in test [1] (Table 9) turned out to be 900 nM. Consider `COc1cc2c(cc1NC(=O)CC1CCCC1)OCO2` [compound 520], for which, in test [1] (Table 9), the IC50 worked out at 308 nM. On the same count and under the same terms, with `COc1cc2c(cc1NC(=O)CC1CCCCO1)OCO2` (stereo not shown) [compound 521] the figure was 2260 nM; with `COc1ccccc1CC(=O)Nc1cc2c(cc1OC)OCO2` [compound 522], 886 nM. Still for that read-out and setting: with `CC(=O)c1cc2c(cc1NC(=O)Cc1ccco1)OCO2` [compound 523] the figure was 2310 nM. Turning to `COc1cc2c(cc1NC(=O)Cc1ccsc1)OCO2` [compound 524], the IC50 in test [1] (Table 9) was 868 nM. For the compound `COc1cc2c(cc1NC(=O)C(C)C1CCN(C(=O)OC(C)(C)C)CC1)OCO2` (stereo not shown) [compound 525], the IC50 in test [1] (Table 9) was 3000 nM. On the same count and under the same terms, with `COC(=O)c1cc2c(cc1NC(=O)CC1CCN(C(=O)OC(C)(C)C)CC1)OCO2` [compound 528] the figure was around 1000 nM.

For `COC(=O)c1cc2c(cc1NC(=O)CC1CCOCC1)OCCO2` [compound 529], in test [1] (Table 9), the IC50 amounted to 12000 nM.
